Source: paper PMC11436104 (Toxins, 2024)
Several values for one entry are separate records, joined by “and”; a condition that tells them apart may be missing. Equal entries are not always repeated. Where two headings read alike, the source gives them in different places. *1 amine or outer side, *2 acyl side, *3 side chain or, on linkers, in order; H or OH if unused. Where a SMILES comes first, the peptide text is derived from it. Bridges are numbered along the chain shown (N, C = ends). [ ]: non-standard residue; d: D form. Adda = CO[C@@H](Cc1ccccc1)[C@@H](C)/C=C(C)/C=C/[C@H](N[*:1])[C@H](C)C(=O)[*:2]; dAsp(3S-Me) = C[C@H](C(=O)[*:3])[C@@H](N[*:1])C(=O)[*:2]; d(γGlu) = O=C(O)[C@@H](CCC(=O)[*:2])N[*:1]; hTyr = N[C@@H](CCc1ccc(O)cc1)C(=O)O; NMeA = CN[C@@H](C)C(=O)O; NMeDha = C=C(NC)C(=O)O; CO = O=C([*:1])[*:2]

How the values were obtained:
NES = assay: Gene expression by quantitative real-time PCR in U-87MG cells; format: cell-based, human
Description: (§1) Cells were seeded onto 6-well plates, left to attach for 16 h, and treated with each non-hCCP separately (0.1–10 µM) and the hepatotoxic MC-LR (0.01–1 µM) for 24 h at 37 °C in the CO2 incubator. The total RNA from the cells (0.5–1.0 × 10^6 cells) was isolated using the TRIzol reagent (Invitrogen), and the cDNA was synthesized using 1 μg total RNA with cDNA high-capacity archive kits (Applied Biosystems, Foster City, CA, USA), according to the manufacturer’s protocol.
(§2) The expression levels of TUBA1A, ACTB, NES, and GFAP were quantified using quantitative real-time PCR (ABI 7900 HT Sequence Detection System; Applied Biosystems). TaqMan Universal PCR Master Mix and the following TaqMan Gene Expression Assays were used: TUBA1A: tubulin, alpha 1a, Hs00362387_m1; ACTB: actin, beta, Hs99999903_m1; NES, nestin, Hs00707120_s1; and GFAP, glial fibrillary acidic protein, and Hs00157674_m1 (all from Applied Biosystems). Amplification of a glyceraldehyde 3-phosphate dehydrogenase probe GAPDH (Human Endogenous Controls, Cat. # 4310884E; Applied Biosystems) was performed as an internal control. The conditions for the quantitative real-time PCR were as follows: 50 °C for 2 min, 95 °C for 10 min, 40 cycles of 95 °C for 15 s, and 60 °C for 1 min.
(§3) The data obtained from the TaqMan Gene Expression Assays were analyzed using the ΔΔCt algorithm. Two replicates per concentration and three independent experiments were performed. The statistical significance between the controls and the treated groups was determined using two-tailed Student’s t-tests, where p < 0.05 was statistically significant. In addition, the relative expression was normalized to the housekeeping gene GAPDH (relative quantification), with at least three sample concentrations used for each gene in both untreated cell lines.

GFAP = assay: as above; format: cell-based, human; conditions: 24 h, relative to non-treated control
Description: as §1, §2, §3

ACTB = assay: as above; format: cell-based, human; conditions: 24 h, relative to non-treated control
Description: as §1, §2, §3

[1] = target: T1, Ser/Thr protein phosphatase type-2A (PP2A) (Bos taurus, UniProt P67774); assay: Colorimetric protein phosphatase inhibition assay, p-nitrophenyl phosphate substrate; format: biochemical, bovine
T1 construct: PP2A; from bovine kidney; purchased Sigma P1868; host or cells: bovine kidney (tissue-purified)
T1 sequence (P67774 whole entry): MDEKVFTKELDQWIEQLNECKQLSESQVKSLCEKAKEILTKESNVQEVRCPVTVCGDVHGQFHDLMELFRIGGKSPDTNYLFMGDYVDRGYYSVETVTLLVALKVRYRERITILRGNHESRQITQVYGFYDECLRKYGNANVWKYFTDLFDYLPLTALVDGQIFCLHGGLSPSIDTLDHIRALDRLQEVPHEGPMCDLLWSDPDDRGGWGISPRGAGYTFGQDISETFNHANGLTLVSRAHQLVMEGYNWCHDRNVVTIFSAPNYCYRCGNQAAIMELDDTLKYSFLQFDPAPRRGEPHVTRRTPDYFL
Description: The inhibition of Ser/Thr protein phosphatases by the CCPs was measured using the colorimetric inhibition assay described by An and Carmichael and Gkelis et al., with some modifications. […] Enzymes, PP1 and PP2A, were diluted in reaction buffer #1 (50 mM Tris-HCl, 1.0 g/L bovine serum albumin, 1.0 mM MnCl2, 2.0 mM dithiothreitol, pH 7.4), and p-nitrophenyl phosphate was prepared in substrate buffer (0.1 M glycine, pH 10.4, 1 mM MgCl2, 1 mM ZnCl2). The assay was performed by the addition of each CCP (as a potential inhibitor; final concentrations, 0.1, 1, 10, and 100 µM) to the enzyme solution (i.e., PP1 and PP2A; final concentrations, 1 U/well and 0.01 U/well, respectively, where 1 U hydrolyzes 1 nmole of substrate per minute at pH 7.4 at 30 °C). After a few seconds of gentle shaking, the microplate was kept at room temperature for 5 min, followed by the addition of reaction buffer #2 (50 mM Tris-HCl, 0.5 g/L bovine serum albumin, 0.2 mM MnCl2, 20 mM MgCl2, and pH 8.1) for PP1, or reaction buffer #1 for PP2A. The reactions were started by the addition of p-nitrophenyl phosphate (final concentrations, 15 mM for PP1 and 10 mM for PP2A) and were carried out for 120 min at 37 °C. The hydrolysis of p-nitrophenyl phosphate to […] was recorded at 405 nm using a microplate reader (Tecan, Austria). The inhibition percentages (X) were calculated from the absorbances of the samples after incubation for 30 min, as according to Equation (1):X (%) = (APP − AS)/APP × 100,(1) where APP is the absorbance of the control sample (i.e., enzyme only), and AS is the absorbance of the test sample (i.e., enzyme with potential inhibitor). […] All measurements were repeated a minimum of three independent times, with five technical replicates per experiment. IC50 values are expressed as means ± SD.

[2] = U-87MG, 0.1 µM CCP, 24 h, relative to non-treated control
[3] = U-87MG, 1 µM CCP, 24 h, relative to non-treated control
[4] = U-87MG, 10 µM CCP, 24 h, relative to non-treated control
[5] = means ± SD, p-nitrophenyl phosphate 10 mM

Row | SMILES | Changes in gene expression of NES (NES; [2]) | Changes in gene expression of NES (NES; [3]) | Changes in gene expression of NES (NES; [4]) | Changes in gene expression of GFAP (GFAP; 0.1 µM CCP) | Changes in gene expression of GFAP (GFAP; 1 µM CCP) | Changes in gene expression of GFAP (GFAP; 10 µM CCP) | Changes in gene expression of ACTB (ACTB; 0.1 µM CCP) | Changes in gene expression of ACTB (ACTB; 1 µM CCP) | Changes in gene expression of ACTB (ACTB; 10 µM CCP) | IC50 [1, 5] [µM] | Changes in gene expression of NES (NES) | IC50 [1] [µM]
1 | CC[C@H](C)[C@@H]1NC(=O)[C@H](Cc2ccc(OC)cc2)N(C)C(=O)[C@H]([C@@H](C)O)N2C(=O)[C@H](CC[C@H]2O)NC(=O)[C@H](CC(C)C)NC(=O)[C@@H](NC(=O)[C@H](CCC(N)=O)NC(=O)[C@H](CCc2ccc(O)cc2)NC(=O)[C@@H](O)CO)[C@@H](C)OC1=O | 1.003 ± 0.164 | 1.069 ± 0.105 | 1.240 ± 0.041 | 1.107 ± 0.214 | 1.283 ± 0.185 | 1.016 ± 0.046 | 1.015 ± 0.057 | 1.051 ± 0.185 | 1.147 ± 0.105 | 18.2 ± 15.7 |  | 
2 | C=C1C(=O)N[C@H](C)C(=O)N[C@@H](CC(C)C)C(=O)N[C@@H](C(=O)O)[C@H](C)C(=O)N[C@@H](CCCNC(=N)N)C(=O)N[C@@H](/C=C/C(C)=C/[C@H](C)[C@H](Cc2ccccc2)OC)[C@H](C)C(=O)N[C@@H](C(=O)O)CCC(=O)N1C [MC-LR, Microcystin-LR, reference compound] (R[Adda][d(γGlu)][NMeDha][dA]L[dAsp(3S-Me)]-OH; lactam N-7) |  |  |  |  |  |  |  |  |  |  | 1.030 ± 0.105 and 0.877 ± 0.148 | 4.8e-05 ± 1e-05
3 | CC(C)[C@@H]1NC(=O)[C@H](NC(=O)N[C@@H](CCCNC(=N)N)C(=O)O)CCCCNC(=O)[C@H](Cc2ccccc2)NC(=O)[C@H](C)N(C)C(=O)[C@H](CCc2ccc(O)cc2)NC1=O [anabaenopeptin B] ({Arg-CO}-[dK]V[hTyr][NMeA]F; lactam 1-C) | 0.948 ± 0.143 | 0.992 ± 0.085 | 0.931 ± 0.054 | 1.088 ± 0.390 |  | 1.175 ± 0.148 | 0.998 ± 0.070 | 1.039 ± 0.070 | 1.122 ± 0.033 | 12.3 ± 6.1 |  | 
4 | CC[C@H](C)[C@@H]1NC(=O)[C@H](NC(=O)N[C@@H](CCCNC(=N)N)C(=O)O)CCCCNC(=O)[C@H](Cc2ccccc2)NC(=O)[C@H](C)N(C)C(=O)[C@H](CCc2ccc(O)cc2)NC1=O [anabaenopeptin F] ({Arg-CO}-[dK]I[hTyr][NMeA]F; lactam 1-C) | 1.040 ± 0.105 | 1.081 ± 0.056 | 0.886 ± 0.037 | 1.002 ± 0.087 | 1.096 ± 0.211 | 1.191 ± 0.435 | 0.935 ± 0.118 | 1.084 ± 0.138 | 1.046 ± 0.130 | 1 ± 0.2 |  | 
